# According to patent publication US8278345B2, “Inhibitors of glutaminyl cyclase” (Probiodrug AG, priority 2006, dated 2012):
# Target: hQC (Homo sapiens, UniProt Q16769)
# Assay: Inhibitor assay for glutaminyl cyclase activity (fluorometric, H-Gln-βNA / H-Gln-AMC)
# Type: biochemical
# Details: read-out: IC50
# Outline: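 Coupled fluorometric assay at 30 °C with pyroglutamyl aminopeptidase, in Tris/HCl pH 8.0 with EDTA, substrate H-Gln-βNA (0.2 mM; ex/em 320/410 nm) or H-Gln-AMC (ex/em 380/460 nm), initiated by QC. Screening: 4 mM inhibitor, substrate at 1 KM; Ki from progress curves fitted to competitive inhibition.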
# Chain of hQC (Q16769 29-361): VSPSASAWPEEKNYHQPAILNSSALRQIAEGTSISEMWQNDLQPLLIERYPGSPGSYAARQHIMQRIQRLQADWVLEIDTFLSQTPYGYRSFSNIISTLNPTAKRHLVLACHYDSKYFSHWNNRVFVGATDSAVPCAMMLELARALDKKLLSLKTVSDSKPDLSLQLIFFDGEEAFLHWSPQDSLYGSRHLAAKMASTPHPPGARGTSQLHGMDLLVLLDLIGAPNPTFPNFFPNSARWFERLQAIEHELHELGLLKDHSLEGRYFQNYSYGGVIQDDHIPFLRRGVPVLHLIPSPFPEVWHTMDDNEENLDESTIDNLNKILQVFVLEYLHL
compound,measurement,value
"CC1=C(O)C(=O)N(c2ccc3[nH]cnc3c2)C1c1csc2ccccc12 (stereo not drawn) [Compound 347, 5-Benzo[b]thiophen-3-yl-1-(1H-benzoimidazol-5-yl)-3-hydroxy-4-methyl-1,5-dihydro-pyrrol-2-one]",IC50,3.1 µM
"CC(C)C1=C(O)C(=O)N(c2ccc3[nH]cnc3c2)C1c1ccsc1 (stereo not drawn) [Compound 348, 1-(1H-Benzoimidazol-5-yl)-3-hydroxy-4-isopropyl-5-thiophen-3-yl-1,5-dihydro-pyrrol-2-one]",IC50,4.09 µM
"CC(=O)C1=C(O)C(=O)N(c2ccc3[nH]cnc3c2)C1c1nccs1 (stereo not drawn) [Compound 349, 4-Acetyl-1-(1H-benzoimidazol-5-yl)-3-hydroxy-5-thiazol-2-yl-1,5-dihydro-pyrrol-2-one]",IC50,1.03 µM
"CC1=C(O)C(=O)N(c2ccc3[nH]cnc3c2)C1c1ccc2nonc2c1 (stereo not drawn) [Compound 351, 1-(1H-Benzoimidazol-5-yl)-5-(benzo[c][1,2,5]oxadiazol-5-yl)-3-hydroxy-4-methyl-1,5-dihydro-pyrrol-2-one]",IC50,1.21 µM
"CC(=O)C1=C(O)C(=O)N(c2ccc3[nH]cnc3c2)C1c1ccc(CO)o1 (stereo not drawn) [Compound 352, 4-Acetyl-1-(1H-benzoimidazol-5-yl)-3-hydroxy-5-(5-hydroxymethyl-furan-2-yl)-1,5-dihydro-pyrrol-2-one]",IC50,0.004 µM
"CCCC(=O)C1=C(O)C(=O)N(c2ccc3[nH]cnc3c2)C1c1ccco1 (stereo not drawn) [Compound 353, 1-(1H-Benzoimidazol-5-yl)-4-butyryl-5-furan-2-yl-3-hydroxy-1,5-dihydro-pyrrol-2-one]",IC50,2.74 µM
"O=C(O)CC1=C(O)C(=O)N(c2ccc3[nH]cnc3c2)C1c1cccc2cccnc12 (stereo not drawn) [Compound 354, [1-(1H-Benzoimidazol-5-yl)-4-hydroxy-5-oxo-2-quinolin-8-yl-2,5-dihydro-1H-pyrrol-3-yl]-acetic acid]",IC50,8.77 µM
"CCCC(=O)C1=C(O)C(=O)N(c2ccc3[nH]cnc3c2)C1c1ccc[nH]1 (stereo not drawn) [Compound 355, 1-(1H-Benzoimidazol-5-yl)-3-butyryl-4-hydroxy-1,2-dihydro-1′H-[2,2′]bipyrrolyl-5-one]",IC50,8.68 µM
"CC1=C(O)C(=O)N(c2ccc3[nH]cnc3c2)C1c1coc2ccccc2c1=O (stereo not drawn) [Compound 356, 1-(1H-Benzoimidazol-5-yl)-3-hydroxy-4-methyl-5-(4-oxo-4H-chromen-3-yl)-1,5-dihydro-pyrrol-2-one]",IC50,3.91 µM
"O=C1C(O)=C(c2c[nH]c3ccccc23)C(c2coc3ccccc3c2=O)N1c1ccc2[nH]cnc2c1 (stereo not drawn) [Compound 357, 1-(1H-Benzoimidazol-5-yl)-3-hydroxy-4-(1H-indol-3-yl)-5-(4-oxo-4H-chromen-3-yl)-1,5-dihydro-pyrrol-2-one]",IC50,4.72 µM
"O=C(O)CC1=C(O)C(=O)N(c2ccc3[nH]cnc3c2)C1c1c(F)ccc(Cl)c1F (stereo not drawn) [Compound 358, [1-(1H-Benzoimidazol-5-yl)-2-(3-chloro-2,6-difluoro-phenyl)-4-hydroxy-5-oxo-2,5-dihydro-1H-pyrrol-3-yl]-acetic acid]",IC50,4.54 µM
"CCCC(=O)C1=C(O)C(=O)N(c2ccc3[nH]cnc3c2)C1c1c[nH]cn1 (stereo not drawn) [Compound 359, 1-(1H-Benzoimidazol-5-yl)-4-butyryl-3-hydroxy-5-(1H-imidazol-4-yl)-1,5-dihydro-pyrrol-2-one]",IC50,7.78 µM
"CC(=O)C1=C(O)C(=O)N(c2ccc3[nH]cnc3c2)C1c1cnc2ccccc2c1 (stereo not drawn) [Compound 360, 4-Acetyl-1-(1H-benzoimidazol-5-yl)-3-hydroxy-5-quinolin-3-yl-1,5-dihydro-pyrrol-2-one]",IC50,0.04 µM
"O=C(O)CCC1C(C(=O)C2CCCCC2)=C(O)C(=O)N1c1ccc2[nH]cnc2c1 (stereo not drawn) [Compound 361, 3-[1-(1H-Benzoimidazol-5-yl)-3-cyclohexanecarbonyl-4-hydroxy-5-oxo-2,5-dihydro-1H-pyrrol-2-yl]-propionic acid]",IC50,8.95 µM
"CCCC(=O)C1=C(O)C(=O)N(c2ccc3[nH]cnc3c2)C1 [Compound 362, 1-(1H-Benzoimidazol-5-yl)-4-butyryl-3-hydroxy-1,5-dihydro-pyrrol-2-one]",IC50,4.72 µM
